Test results published in publication PMC5118696, “Identification of inhibitors that dually target the new permeability pathway and dihydroorotate dehydrogenase in the blood stage of Plasmodium falciparum” (Scientific Reports, 2016).
Like-named read-outs stand apart in the source and are kept apart here.

Key:
[1] = system: Hyp1-NLuc Plasmodium falciparum-infected erythrocytes (new permeability pathway, NPP); assay: microbe, parasite or virus in culture; conditions: Erythrocyte, 0.33 h, read-out: % of control remaining
[2] = system: Hyp1-NLuc Plasmodium falciparum-infected erythrocytes (new permeability pathway, NPP); assay: microbe, parasite or virus in culture; conditions: Erythrocyte, 0.33 h, read-out: Mean RLU at 28 min (As % of DMSO control)

SMILES | activity at 2 µM [1] | activity at 2 µM [2]
OC(CNC1CCCCC1)Cn1c2ccccc2c2ccccc21 (stereo not drawn) [MMV009063] | 92.9% | 97%
O=C1c2ccc3c4c(ccc(c24)C(=O)N1CCCCO)C(=O)N(CCCCO)C3=O [MMV009085] | 58.9% | 93.1%
CCN(CC)S(=O)(=O)c1ccc(-c2csc(Nc3ccc(C)c(C)c3)n2)cc1 [MMV009108] | 107% | 107%
CC1CCN(Cc2c(O)ccc3cc(-c4nc5ccccc5s4)c(=O)oc23)CC1 [MMV009127] | 105% | 101%
Cc1cc(Nc2ccc3ccccc3c2)n2ncnc2n1 [MMV011099] | 99.8% | 99.9%
Cc1cc(Nc2ccc(Cl)cc2)n2nc(C(F)(F)F)nc2n1 [MMV011256] | 109% | 111%
Cc1cc(C)cc(Nc2cc(C)nc3nc(C(F)(F)F)nn23)c1 [MMV011259] | 98.6% | 101%
CC(C)(C)c1ccc(C2CC3=Nc4ccccc4N(C(=O)c4ccccc4Cl)C(c4ccc(F)cc4)C3=C(O)C2)cc1 (stereo not drawn) [MMV011436] | 106% | 106%
COC(=O)c1ccc(C2C3=C(O)CC(c4ccc(F)cc4)CC3=Nc3ccccc3N2C(=O)c2ccccc2)cc1 (stereo not drawn) [MMV011438] | 89.7% | 92.2%
Cc1ccc(Nc2nc(N)c3ccccc3n2)cc1Cl [MMV011522] | 99.9% | 95.7%
COc1ccc(C(=O)Nc2nonc2-c2ccc(OC)c(OC)c2)cc1Cl [MMV011567] | 103% | 103%
CCOC(=O)C1CCN(C(=O)CN2C(=O)c3ccccc3C2c2c[nH]c3ccccc23)CC1 (stereo not drawn) [MMV011576] | 107% | 107%
Oc1ccccc1CN1CCN(C(c2ccccc2)c2ccccc2)CC1 [MMV011795] | 113% | 115%
Oc1ccc2ccccc2c1CNc1nc2ccccc2[nH]1 [MMV011832] | 102% | 107%
Nc1ccc(-c2nc3cc(Oc4ccc(Oc5ccc6[nH]c(-c7ccc(N)cc7)nc6c5)cc4)ccc3[nH]2)cc1 [MMV011895] | 74.5% | 91.2%
COc1cccc(Nc2nc(NCCO)c3ccccc3n2)c1 [MMV011944] | 101% | 101%
Cc1cc(NC(=O)c2ccc(-c3ccccc3)cc2)no1 [MMV018984] | 110% | 111%
COCCNCC(O)Cn1c2ccc(Cl)cc2c2cc(Cl)ccc21 (stereo not drawn) [MMV019017] | 100% | 105%
COc1cccc(-c2nn(C)c3sc(C(=O)NCCN4CCN(c5ccccc5F)CC4)cc23)c1 [MMV019064] | 118% | 110%
COc1ccccc1CNC(=O)CCn1c(=O)[nH]c2ccsc2c1=O [MMV019066] | 96.9% | 98.8%
CCN1CCN(c2cc(C)c3cc(NC(=O)c4ccc(OC)c(OC)c4)ccc3n2)CC1 [MMV019074] | 118% | 104%
Cc1cccc(Nc2nc(N)c3ccccc3n2)c1 [MMV019110] | 106% | 105%
CCN(Cc1ccccc1)C1CCN(Cc2cc(Br)ccc2O)CC1 [MMV019127] | 107% | 109%

SMILES | activity at 2 µM [1] | activity at 2 µM [2]
COc1cccc(Nc2nc(N)c3ccccc3n2)c1 [MMV019199] | 97.7% | 98.1%
CCOc1cccc(C(=O)Nc2ccc(-c3nc4ccccc4[nH]3)cc2)c1 [MMV019202] | 117% | 118%
O=C(Nc1ccc(-c2nc3cc4ccccc4cc3[nH]2)cc1)c1cccc(Br)c1 [MMV019241] | 113% | 103%
COc1ccc(-n2ccnc2SCC(=O)Nc2cc(C)ccc2C)c(OC)c1 [MMV019258] | 115% | 117%
Cc1sc2ncnc(Sc3nc4ccccc4[nH]3)c2c1C [MMV019266] | 109% | 109%
Cn1c(=O)c2cc(C(=O)NCCCN3CCCCCC3)sc2c2ccccc21 [MMV019313] | 74.1% | 104%
CCC1(C)CC(CCNCc2ccccc2O)(c2ccc(C)cc2)CCO1 (stereo not drawn) [MMV019406] | 105% | 107%
c1ccc2c(NCCCCCCNc3c4c(nc5ccccc35)CCCC4)c3c(nc2c1)CCCC3 [MMV019555] | 109% | 101%
COc1ccc(N2CCN(C(CNC(=O)C3CCCCC3)c3ccc4c(c3)OCO4)CC2)cc1 (stereo not drawn) [MMV019662] | 114% | 103%
O=C(Nc1ccc(N2CCN(Cc3ccccc3)CC2)cc1)c1cccs1 [MMV019670] | 112% | 113%
COc1ccc(C2NCCc3c2[nH]c2ccccc32)cc1CN1CCN(c2ccc(F)cc2)CC1 (stereo not drawn) [MMV019690] | 113% | 106%
O=C(Nc1ccc(N2CCCCC2)c(Cl)c1)c1ccc(Br)o1 [MMV019700] | 118% | 117%
Cc1[nH]c(-c2ccc(F)cc2)cc1C(=O)NC1CCN(Cc2ccccc2)CC1 [MMV019738] | 95.2% | 109%
Cc1ccc(C)c(Cn2c(N3CCC(C(=O)NCc4cccs4)CC3)nc3ccccc32)c1 [MMV019741] | 112% | 104%
Cc1ccc(Cl)cc1N1CCN(CCCNC(=O)C2CCN(c3nc4ccccc4[nH]3)CC2)CC1 [MMV019746] | 112% | 105%
COc1ccc(C(=O)Nc2ccc3nc(N4CCCCC4)cc(C)c3c2)cc1OC [MMV019758] | 108% | 100%
COc1cccc(C(=O)Nc2ccc(-c3nc4ccccc4[nH]3)cc2)c1 [MMV019762] | 97.1% | 96.5%
Cc1cc(C)c2nc(N3CCC(C(=O)NCCCN4CCC(N5CCCCC5)CC4)CC3)sc2c1 [MMV019780] | 111% | 107%
Fc1ccc2[nH]c3c(NCCCN4CCOCC4)ncnc3c2c1 [MMV019871] | 102% | 106%
O=C(NC1CCN(Cc2ccccc2)CC1)c1cc(C(=O)NC2CCN(Cc3ccccc3)CC2)cc(C(=O)NC2CCN(Cc3ccccc3)CC2)c1 [MMV019881] | 111% | 110%
Clc1cc(Br)ccc1-c1ccc(CNCC2CCNCC2)o1 [MMV019918] | 111% | 114%
O=C(NCCCN1CCC(N2CCCCC2)CC1)C1=Cc2cc(Br)ccc2OC1 [MMV019995] | 106% | 106%
Cc1cc(N(C)C)nc(Nc2ccc(NC(=O)Nc3ccccc3)cc2)n1 [MMV020243] | 104% | 106%

SMILES | activity at 2 µM [1] | activity at 2 µM [2]
O=C(NC1CCN(Cc2ccccc2)CC1)c1cc(-c2ccncc2)nc2ccc(Cl)cc12 [MMV020275] | 115% | 115%
COc1ccc(-c2cn3c(C(=O)Nc4ccccc4Cl)c(-c4ccccc4)c4c3n2CCCC4)cc1 [MMV020403] | 106% | 103%
CCn1c(CN2CCN(Cc3ccccc3)CC2)nc2cc(NC(=O)c3cccs3)ccc21 [MMV020439] | 18.4% | 20.1%
O=C(NC1CCN(Cc2ccccc2)CC1)c1cc(-c2cccnc2)nc2ccc(Cl)cc12 [MMV020490] | 98.9% | 101%
CC1CN(C(=O)c2sc3ccccc3c2Cl)CC(C)O1 (stereo not drawn) [MMV020492] | 102% | 103%
CNCCCNc1ccnc2cc(Cl)ccc12 [MMV020500] | 97.7% | 98.7%
CN(C)CCCNCc1ccc(-c2ccc(F)c(Cl)c2)o1 [MMV020505] | 106% | 105%
CCN1CCN(Cc2ccc(NC(=O)c3cc4ccc5cccnc5c4[nH]3)cc2)CC1 [MMV020548] | 55.5% | 92.8%
CC1CCN(Cc2ccc(NC(=O)c3cc4ccc5cccnc5c4[nH]3)cc2)CC1 [MMV020549] | 90.5% | 102%
O=C(Nc1ccc(CN2CCOCC2)cc1)c1ccc(-c2cc(Cl)ccc2Cl)o1 [MMV020651] | 103% | 105%
CCC(O)c1ccc(Br)cc1NC(=O)c1cccc(Cl)c1 (stereo not drawn) [MMV020654] | 105% | 113%
COc1ccc(-c2nonc2NC(=O)c2cccc(Cl)c2)cc1OC [MMV020660] | 109% | 108%
CC(=O)Nc1nnc(SCc2c(C)cc(C(C)(C)C)cc2C)s1 [MMV020700] | 115% | 114%
COc1cc(-c2nc(-c3ccccc3)c(-c3ccccc3)[nH]2)cc(OC)c1O [MMV020750] | 109% | 102%
Oc1ccccc1CNCC12CC3CC(CC(C3)C1)C2 [MMV020788] | 109% | 108%
COc1ccc(Br)cc1C1Nc2ccc3ccccc3c2C2=C1C(=O)CC(c1ccccc1)C2 (stereo not drawn) [MMV020885] | 97.2% | 100%
Cc1ccc(-c2nc3ccccc3o2)cc1NCc1cc(Cc2ccccc2)ccc1O [MMV020912] | 94.7% | 99.2%
CCC(=O)Nc1nnc(Cc2ccc(OC)c(OC)c2)s1 [MMV020942] | 102% | 102%
COc1cc(SC)ccc1C(=O)N1CCCC(C)C1 (stereo not drawn) [MMV056726] | 123% | 122%
CN(C)c1ccc(N=Cc2ccc(N3CCOCC3)cc2)cc1 [MMV073843] | 104% | 104%
CCOc1ccc(C2N(C)c3ccccc3N2C)cc1 [MMV075490] | 116% | 117%
Nc1nc(Nc2cccc(F)c2)nc2ccccc12 [MMV080034] | 94.5% | 93.1%
COc1ccc(C=C2SC(Nc3ccc(F)cc3)=NC2=O)c(OC)c1 [MMV084434] | 27.1% | 36.5%
